Measurements as given in patent publication US12590106B2, “Spiromacrocyclic orexin 2 receptor agonists” (H. Lundbeck A/S, priority 2023, dated 2026).
pEC50: −log10 of the molar value.

Target: T1, human Ox2R (Homo sapiens, UniProt O43614)
T1 construct: The gene encoding hOx2R was subcloned into the expression plasmid pcDNA5/FRT/TO; expressed in transfected cells; host or cells: CHO Flp-In cells (pcDNA5/FRT/TO with pOG44 Flp recombinase vector, hygromycin B selection)
T1 sequence (O43614 1-444): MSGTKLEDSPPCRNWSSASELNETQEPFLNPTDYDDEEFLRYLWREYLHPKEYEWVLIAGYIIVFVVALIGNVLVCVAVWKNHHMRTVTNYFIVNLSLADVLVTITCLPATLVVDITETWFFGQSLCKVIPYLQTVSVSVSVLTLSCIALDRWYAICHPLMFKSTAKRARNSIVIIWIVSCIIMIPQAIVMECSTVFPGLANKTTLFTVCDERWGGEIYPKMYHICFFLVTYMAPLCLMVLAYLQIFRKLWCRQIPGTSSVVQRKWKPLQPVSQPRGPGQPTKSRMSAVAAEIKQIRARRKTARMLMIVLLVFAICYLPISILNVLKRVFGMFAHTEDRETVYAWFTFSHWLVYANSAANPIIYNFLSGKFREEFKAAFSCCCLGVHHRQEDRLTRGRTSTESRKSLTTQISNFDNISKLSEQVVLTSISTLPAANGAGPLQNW
Experiment: Measurement of OX2R agonist activity (cell-based calcium release assay)
Conditions: hOx2R-CHO Flp-In cells, n≥2 tests; for pEC50: intracellular calcium, read-out: EC50; for Emax / Emax (%): normalized to assay buffer (0%) and 10 μM Danavorexton (100%); for Emax: read-out: Emax (%)
Excerpt: Measurement of OX2R Agonist Activity
The Ox2R has a broad signaling profile and couple to a range of different Gα-proteins. The cell-based calcium release assay is primarily assessing signaling through the Gαq signaling pathway, which promotes calcium mobilization via inositol triphosphate production upon activation of Ox2R.
A CHO Flp-In cell-line stably expressing the human Ox2R (hOx2R-CHO Flp-In) was established as follows: The gene encoding hOx2R was subcloned into the expression plasmid pcDNA5/FRT/TO and then transfected into CHO Flp-In cells together with the Flp recombinase vector, pOG44. Cells were cultured in growth medium: Ham's F12 (Gibco), 10% fetal bovine serum (Gibco) and 100 U/mL penicillin-streptomycin (Gibco) supplemented with hygromycin B (Thermo Fisher Scientific) as selection marker at 37° C. in the presence of 5% CO2.
To prepare the hOx2R-CHO FlpIn cells for calcium release assay, the cells were suspended in growth medium and seeded in black, clear-bottomed 384-well plates (Corning) at 10,000 cells/well. The plated cells were grown overnight at 37° C. and 5% CO2. The following day, the media was removed, and the cells were incubated with assay buffer (HBSS with 20 mM HEPES, pH 7.4) containing 2.5 mM probenecid (Thermo Fisher Scientific), 10 mM CaCl2, 0.1% pluronic F68 (Gibco) and 1× calcium-4 dye (Molecular Devices) for 1 h at 37° C. and 5% CO2. After incubation, cells were allowed to equilibrate at room temperature for 15 minutes and then loaded into FDSS7000Ex system (Hamamatsu Photonics) together with a plate containing test compounds serially diluted in assay buffer. Cells were stimulated with test compounds (online injection) and the agonist activity was determined as an increase in intracellular calcium concentration measured from the ratio of fluorescence emission at 542 nm by excitation at 480 nm. The agonist response for each applied concentration was assessed as the ratio: maximum fluorescence/average pre-stimulated fluorescence and was normalized to responses from assay buffer alone (0% response) and 10 μM Danavorexton (100% response). EC50 and Emax values were calculated from concentration-response curves by using Genedata Screener software.

| SMILES | pEC50 | Emax [%] | Emax (%) |
| --- | --- | --- | --- |
| CCS(=O)(=O)N[C@H]1CC[C@@]2(Cc3ccc(F)c(c3)-c3ccc(F)c(F)c3OCc3coc2n3)C1 [Example 35, N-[(1′S,14R)-5,6,19-trifluorospiro[8,12-dioxa-21-azatetracyclo[14.3.1.110,13.02,7]henicosa-1(19),2,4,6,10,13(21),16(20),17-octaene-14,3′-cyclopentane]-1′-yl]ethanesulfonamide] | 8.85 | 100 | – |
| Cc1cccc2c1OCc1coc(n1)[C@]1(CC[C@H](NS(C)(=O)=O)C1)Cc1ccc(F)c-2c1 [Example 37, N-[(1′S,14R)-19-fluoro-6-methyl-spiro[8,12-dioxa-21-azatetracyclo[14.3.1.110,13.02,7]henicosa-1(19),2,4,6,10,13(21),16(20),17-octaene-14,3′-cyclopentane]-1′-yl]methanesulfonamide] | 8.96 | 96 | – |
| CS(=O)(=O)N[C@H]1CC[C@@]2(Cc3cccc(c3)-c3ccccc3OCc3coc2n3)C1 [Example 38, N-[(1′S,14R)-spiro[8,12-dioxa-21-azatetracyclo[14.3.1.110,13.02,7]henicosa-1(20),2,4,6,10,13(21),16,18-octaene-14,3′-cyclopentane]-1′-yl]methanesulfonamide] | 8.37 | 99 | – |
| CS(=O)(=O)N[C@H]1CC[C@@]2(COCCc3cccc(c3)OCc3coc2n3)C1 [Example 40, N-[(1′S,8S)-spiro[2,6,10-trioxa-18-azatricyclo[11.3.1.14,7]octadeca-1(17),4,7(18),13,15-pentaene-8,3′-cyclopentane]-1′-yl]methanesulfonamide] | 5.77 | 94 | – |
| CS(=O)(=O)N[C@H]1CC[C@@]2(Cc3cccc(c3)-c3cccc(n3)OCc3coc2n3)C1 [Example 47, N-[(1′S,13R)-spiro[7,11-dioxa-20,21-diazatetracyclo[13.3.1.12,6.19,12]henicosa-1(19),2,4,6(21),9,12(20),15,17-octaene-13,3′-cyclopentane]-1′-yl]methanesulfonamide] | 8.07 | 96 | – |
| CS(=O)(=O)N[C@H]1CC[C@@]2(Cc3cccc(c3)-c3cccc(c3)OCc3coc2n3)C1 [Example 48, N-[(1′S,13R)-spiro[7,11-dioxa-20-azatetracyclo[13.3.1.12,6.19,12]henicosa-1(19),2,4,6(21),9,12(20),15,17-octaene-13,3′-cyclopentane]-1′-yl]methanesulfonamide] | 7.82 | 95 | – |
| CS(=O)(=O)N[C@H]1CC[C@@]2(Cc3cc(ccn3)-c3ccccc3OCc3coc2n3)C1 [Example 49, N-[(1′S,14S)-spiro[8,12-dioxa-17,21-diazatetracyclo[14.3.1.110,13.02,7]henicosa-1(20),2,4,6,10,13(21),16,18-octaene-14,3′-cyclopentane]-1′-yl]methanesulfonamide] | 5.70 | 94 | – |
| C[C@H]1C[C@H](NS(C)(=O)=O)C[C@]12Cc1ccc(F)c(c1)-c1cccc(F)c1OCc1coc2n1 [Example 60, N-[(1′S,4′S,14R)-6,19-difluoro-4′-methyl-spiro[8,12-dioxa-21-azatetracyclo[14.3.1.110,13.02,7]henicosa-1(19),2,4,6,10,13(21),16(20),17-octaene-14,3′-cyclopentane]-1′-yl]methanesulfonamide or N-[(1′R,4′R,14S)-6,19-difluoro-4′-methyl-spiro[8,12-dioxa-21-azatetracyclo[14.3.1.110,13.02,7]henicosa-1(19),2,4,6,10,13(21),16(20),17-octaene-14,3′-cyclopentane]-1′-yl]methanesulfonamide] | 9.48 | – | 100 |
| C[C@H]1C[C@H](NS(C)(=O)=O)C[C@]12Cc1ccc(F)c(c1)-c1cccc(F)c1OCc1coc2n1 [Example 61, N-[(1′S,4′S,14R)-6,19-difluoro-4′-methyl-spiro[8,12-dioxa-21-azatetracyclo[14.3.1.110,13.02,7]henicosa-1(19),2,4,6,10,13(21),16(20),17-octaene-14,3′-cyclopentane]-1′-yl]methanesulfonamide or N-[(1′R,4′R,14S)-6,19-difluoro-4′-methyl-spiro[8,12-dioxa-21-azatetracyclo[14.3.1.110,13.02,7]henicosa-1(19),2,4,6,10,13(21),16(20),17-octaene-14,3′-cyclopentane]-1′-yl]methanesulfonamide] | 6.85 | – | 96 |
| C[C@@H]1C[C@@H](NS(C)(=O)=O)C[C@@]12Cc1ccc(F)c(c1)-c1ccccc1OCc1coc2n1 [Example 62, N-[(1′R,4′R,14S)-19-fluoro-4′-methyl-spiro[8,12-dioxa-21-azatetracyclo[14.3.1.110,13.02,7]henicosa-1(19),2,4,6,10,13(21),16(20),17-octaene-14,3′-cyclopentane]-1′-yl]methanesulfonamide or N-[(1′S,4′S,14R)-19-fluoro-4′-methyl-spiro[8,12-dioxa-21-azatetracyclo[14.3.1.110,13.02,7]henicosa-1(19),2,4,6,10,13(21),16(20),17-octaene-14,3′-cyclopentane]-1′-yl]methanesulfonamide] | 6.80 | – | 100 |

Further lines, with some results ahead:

| pEC50 | Emax [%] | SMILES | Emax (%) |
| --- | --- | --- | --- |
| 9.10 | 98 | O=S(=O)(N[C@H]1CC[C@@]2(Cc3ccc(F)c(c3)-c3ccc(F)c(F)c3OCc3coc2n3)C1)C1CC1 [Example 34, N-[(1′S,14R)-5,6,19-trifluorospiro[8,12-dioxa-21-azatetracyclo[14.3.1.110,13.02,7]henicosa-1(19),2,4,6,10,13(21),16(20),17-octaene-14,3′-cyclopentane]-1′-yl]cyclopropanesulfonamide] | – |
| 9.72 | 98 | CS(=O)(=O)N[C@H]1CC[C@@]2(CO[C@H]3CC[C@H](CC3)c3cccc(c3)OCc3coc2n3)C1 [Example 41, N-[(1s,1′S,13S,16s)-spiro[7,11,15-trioxa-21-azatetracyclo[14.2.2.12,6.19,12]docosa-2,4,6(22),9,12(21)-pentaene-13,3′-cyclopentane]-1′-yl]methanesulfonamide] | – |
| 9.16 | 100 | CS(=O)(=O)N[C@H]1CC[C@@]2(CO[C@H]3CC[C@H](CC3)c3cccnc3OCc3coc2n3)C1 [Example 43, N-[(1s,1′S,14R,17s)-spiro[8,12,16-trioxa-6,22-diazatetracyclo[15.2.2.110,13.02,7]docosa-2,4,6,10,13(22)-pentaene-14,3′-cyclopentane]-1′-yl]methanesulfonamide] | – |
| 9.27 | 99 | CS(=O)(=O)N[C@H]1CC[C@@]2(Cc3cccc(c3)-c3cccc(F)c3OCc3coc2n3)C1 [Example 44, N-[(1′S,14R)-6-fluorospiro[8,12-dioxa-21-azatetracyclo[14.3.1.110,13.02,7]henicosa-1(19),2,4,6,10,13(21),16(20),17-octaene-14,3′-cyclopentane]-1′-yl]methanesulfonamide] | – |
| 9.47 | 97 | CS(=O)(=O)N[C@H]1CC[C@@]2(Cc3ccc(F)c(c3)-c3ccccc3OCc3coc2n3)C1 [Example 45, N-[(1′S,14R)-19-fluorospiro[8,12-dioxa-21-azatetracyclo[14.3.1.110,13.02,7]henicosa-1(19),2,4,6,10,13(21),16(20),17-octaene-14,3′-cyclopentane]-1′-yl]methanesulfonamide] | – |
| 9.85 | 99 | CS(=O)(=O)N[C@H]1CC[C@@]2(Cc3ccc(F)c(c3)-c3cccc(F)c3OCc3csc2n3)C1 [Example 46, N-[(1′S,14R)-6,19-difluorospiro[8-oxa-12-thia-21-azatetracyclo[14.3.1.110,13.02,7]henicosa-1(19),2,4,6,10,13(21),16(20),17-octaene-14,3′-cyclopentane]-1′-yl]methanesulfonamide] | – |
